# Where two headings read alike, the source gives them in different places.
# Columns and labels:
# human sEH [1] = molecular target: T1, human sEH (Homo sapiens, UniProt P34913); assay: Human sEH inhibition, kinetic fluorescent assay (CMNPC assay); type: biochemical
# T1 construct: made in house; host or cells: insect cells with baculovirus (given both as High Five cells and as Spodoptera frugiperda 21)
# T1 sequence (P34913 1-555): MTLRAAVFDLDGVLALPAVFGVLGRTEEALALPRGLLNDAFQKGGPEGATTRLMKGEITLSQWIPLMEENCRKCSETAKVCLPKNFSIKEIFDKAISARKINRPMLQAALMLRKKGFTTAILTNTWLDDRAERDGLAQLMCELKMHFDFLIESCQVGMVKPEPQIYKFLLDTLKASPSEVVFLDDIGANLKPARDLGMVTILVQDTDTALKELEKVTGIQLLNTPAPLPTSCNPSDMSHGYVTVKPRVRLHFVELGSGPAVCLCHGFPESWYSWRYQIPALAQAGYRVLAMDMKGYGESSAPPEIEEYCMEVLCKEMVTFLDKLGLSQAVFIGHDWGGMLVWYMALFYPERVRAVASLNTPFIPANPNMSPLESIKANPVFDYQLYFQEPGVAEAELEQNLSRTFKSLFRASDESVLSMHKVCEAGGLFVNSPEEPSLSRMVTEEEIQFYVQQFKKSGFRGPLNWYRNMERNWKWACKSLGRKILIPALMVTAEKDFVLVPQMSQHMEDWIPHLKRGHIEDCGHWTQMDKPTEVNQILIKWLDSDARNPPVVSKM
# Method: Recombinant human and recombinant rat sEH were produced in insect High Five cells using recombinant baculovirus expression vectors, and purified by affinity chromatography as reported previously.[31]^,[32] […] Human sEH was obtained by expressing cDNA in the baculovirus system in the cell line Spodoptera frugiperda 21.
# Determination of inhibitory potency (IC50) by fluorescent assay (CMNPC assay)[27]
# The enzyme (ca. 1 nM human sEH) was incubated at 30 °C with inhibitors ([I]final = 0.4–100,000 nM) for 5 min in 100 mM sodium phosphate buffer (200 μL, pH 7.4) containing 0.1 mg mL^−1 of BSA and 1% of DMSO. The substrate (cyano(2-methoxynaphthalen-6-yl)methyl trans-(3-phenyloxyran-2-yl)methylcarbonate, CMNPC) was then added ([S]final = 5 μM). The activity was assessed by measuring the appearance of the fluorescent 6-methoxynaphthaldehyde product ([…]) at 30 °C during a 10 min incubation (Spectramax M2; Molecular Device, Inc., Sunnyvale, CA).
# [2] = Aqueous solubility by turbidimetric assay; type: physicochemical; details: aqueous buffer, kinetic from dmso stock, sodium phosphate buffer (pH 7.4, 0.1 M) containing 1% of DMSO, read-out: Saq (aqueous solubility)
# Method: Solubilities were measured in sodium phosphate buffer (pH 7.4, 0.1 M) containing 1% of DMSO by turbidimetric assay.
# human sEH [3] = molecular target: T1, human sEH; details: cited from earlier work
# [4] = CMNPC fluorescent assay, means of three independent experiments, measurement limit 0.04 nM, read-out: IC50
Structure (SMILES),IC50 (human sEH [1]; [4]),solubility [2],melting point,"IC50 (human sEH [1]; value below the accuracy limit of the assay (0.04 nM), read-out: IC50 as measured, before reduction to the measurement limit)",IC50 (human sEH [3]; earlier version of the assay with a measurement limit of 0.4 nM),IC50 (human sEH [3]; chlorine derivative of t-AUCB without methylene bridge)
O=C(NCCCNC(=O)NCC12CC3CC(CC(F)(C3)C1)C2)NCC12CC3CC(CC(F)(C3)C1)C2 [Compound 11b],1800 pM,150 ± 20 µM,87 to 88 °C,,,
O=C(NCCNC(=O)NCC12CC3CC(CC(F)(C3)C1)C2)NCC12CC3CC(CC(F)(C3)C1)C2 [Compound 11a],9200 pM,150 ± 20 µM,78 to 79 °C,,,
O=C(NCCCCCCCCNC(=O)NCC12CC3CC(CC(F)(C3)C1)C2)NCC12CC3CC(CC(F)(C3)C1)C2 [Compound 11g],< 40 pM,180 ± 20 µM,95 to 96 °C,,,
O=C(NCCCCNC(=O)NCC12CC3CC(CC(Cl)(C3)C1)C2)NCC12CC3CC(CC(Cl)(C3)C1)C2 [Compound 12c],< 40 pM,60 ± 10 µM,213 to 214 °C,,,
O=C(NCCCCCCNC(=O)NCC12CC3CC(CC(Cl)(C3)C1)C2)NCC12CC3CC(CC(Cl)(C3)C1)C2 [Compound 12e],< 40 pM,60 ± 10 µM,148 to 149 °C,,,
O=C(NCCCCNC(=O)NCC12CC3CC(CC(F)(C3)C1)C2)NCC12CC3CC(CC(F)(C3)C1)C2 [Compound 11c],500 pM,180 ± 20 µM,142 to 143 °C,,,
O=C(NCCCCCCCCCCNC(=O)NCC12CC3CC(CC(F)(C3)C1)C2)NCC12CC3CC(CC(F)(C3)C1)C2 [Compound 11i],50 pM,150 ± 20 µM,76 to 77 °C,,,
O=C(NCCCCCCCNC(=O)NCC12CC3CC(CC(F)(C3)C1)C2)NCC12CC3CC(CC(F)(C3)C1)C2 [Compound 11f],< 40 pM,200 ± 20 µM,77 to 78 °C,,,
O=C(NCCCCCCNC(=O)NCC12CC3CC(CC(F)(C3)C1)C2)NCC12CC3CC(CC(F)(C3)C1)C2 [Compound 11e],< 40 pM,150 ± 20 µM,82 to 83 °C,,,
O=C(NCCCCCCCCCCNC(=O)NCC12CC3CC(CC(Cl)(C3)C1)C2)NCC12CC3CC(CC(Cl)(C3)C1)C2 [Compound 12i],< 40 pM,60 ± 10 µM,189 to 190 °C,,,
O=C(NCCCCCCCCCNC(=O)NCC12CC3CC(CC(F)(C3)C1)C2)NCC12CC3CC(CC(F)(C3)C1)C2 [Compound 11h],50 pM,200 ± 20 µM,73 to 74 °C,,,
O=C(NCC12CC3CC(CC(F)(C3)C1)C2)N[C@H]1CC[C@H](Oc2ccc(C(=O)O)cc2)CC1 [Compound 9],600 pM,150 ± 20 µM,85 to 86 °C,,,
O=C(NCCCCCNC(=O)NCC12CC3CC(CC(Cl)(C3)C1)C2)NCC12CC3CC(CC(Cl)(C3)C1)C2 [Compound 12d],< 40 pM,70 ± 10 µM,157 to 158 °C,2 pM,,
O=C(NCCCCCCCCNC(=O)NCC12CC3CC(CC(Cl)(C3)C1)C2)NCC12CC3CC(CC(Cl)(C3)C1)C2 [Compound 12g],100 pM,60 ± 10 µM,187 to 188 °C,,,
"O=C(NCCCCCCNC(=O)NCC12CC3CC(CC(C3)C1)C2)NCC12CC3CC(CC(C3)C1)C2 [DAMH, 1,1'-(hexane-1,6-diyl)bis(3-(adamantan-1-ylmethyl)urea), reference compound]",400 pM,65 ± 5 µM,,,1000 pM,
O=C(NCC12CC3CC(CC(Cl)(C3)C1)C2)N[C@H]1CC[C@H](Oc2ccc(C(=O)O)cc2)CC1 [Compound 10],< 40 pM,160 ± 20 µM,192 to 193 °C,,,
O=C(NCCCCCNC(=O)NCC12CC3CC(CC(F)(C3)C1)C2)NCC12CC3CC(CC(F)(C3)C1)C2 [Compound 11d],400 pM,140 ± 20 µM,75 to 76 °C,,,
O=C(NC12CC3CC(CC(Cl)(C3)C1)C2)N[C@H]1CC[C@H](Oc2ccc(C(=O)O)cc2)CC1 [Compound 1c],,,,,,1400 pM
O=C(NCCCNC(=O)NCC12CC3CC(CC(Cl)(C3)C1)C2)NCC12CC3CC(CC(Cl)(C3)C1)C2 [Compound 12b],< 40 pM,80 ± 10 µM,194 to 195 °C,,,
O=C(NCCNC(=O)NCC12CC3CC(CC(Cl)(C3)C1)C2)NCC12CC3CC(CC(Cl)(C3)C1)C2 [Compound 12a],5100 pM,60 ± 10 µM,222 to 223 °C,,,
O=C(NCCCCCCCNC(=O)NCC12CC3CC(CC(Cl)(C3)C1)C2)NCC12CC3CC(CC(Cl)(C3)C1)C2 [Compound 12f],< 40 pM,80 ± 10 µM,164 to 165 °C,,,

# From PMC11003477, “Fluorine and chlorine substituted adamantyl-urea as molecular tools for inhibition of human soluble epoxide hydrolase with picomolar efficacy” (Journal of Enzyme Inhibition and Medicinal Chemistry, 2023)
